According to PMC12090182, “Repurposing of the RIPK1-Selective Benzo[1,4]oxazepin-4-one Scaffold for the Development of a Type III LIMK1/2 Inhibitor” (ACS Chemical Biology, 2025):
Like-named read-outs stand apart in the source and are kept apart here.

Columns and labels:
Test in all cases: biochemical
Type in all cases: binding
[1] = biological target: 468 kinases including some pathogenic mutants (Homo sapiens, UniProt Q15418); settings: 1000 nM, read-out: Percent Control
[2] = biological target: 468 kinases including some pathogenic mutants (Homo sapiens, UniProt Q9H4B4); settings: PLK3 (Entrez PLK3), 1000 nM; read-out: Percent Control
[3] = biological target: 468 kinases including some pathogenic mutants (Homo sapiens, UniProt P42336, E545K); settings: read-out: Percent Control
[4] = biological target: 468 kinases including some pathogenic mutants (Homo sapiens, UniProt Q13882); settings: BRK (Entrez PTK6), 100 nM; read-out: Percent Control
[5] = biological target: 468 kinases including some pathogenic mutants (Homo sapiens, UniProt Q9HC98); settings: NEK6 (Entrez NEK6), 1000 nM; read-out: Percent Control
[6] = biological target: 468 kinases including some pathogenic mutants (Homo sapiens, UniProt P08581); settings: MET (Entrez MET), 100 nM; read-out: Percent Control
[7] = biological target: 468 kinases including some pathogenic mutants (Homo sapiens, UniProt P51955); settings: NEK2 (Entrez NEK2), 1000 nM; read-out: Percent Control
[8] = biological target: 468 kinases including some pathogenic mutants (Homo sapiens, UniProt Q7KZI7); settings: MARK2 (Entrez MARK2), 100 nM; read-out: Percent Control
[9] = biological target: 468 kinases including some pathogenic mutants (Homo sapiens, UniProt Q9BRS2); settings: RIOK1 (Entrez RIOK1), 100 nM; read-out: Percent Control
[10] = biological target: 468 kinases including some pathogenic mutants (Homo sapiens, UniProt O75747); settings: PIK3C2G (Entrez PIK3C2G), 100 nM; read-out: Percent Control
[11] = biological target: 468 kinases including some pathogenic mutants (Homo sapiens, UniProt Q9H4A3); settings: WNK1 (Entrez WNK1), 1000 nM; read-out: Percent Control
[12] = biological target: 468 kinases including some pathogenic mutants (Homo sapiens, UniProt Q96D53); settings: ADCK4 (Entrez ADCK4), 100 nM; read-out: Percent Control
[13] = biological target: 468 kinases including some pathogenic mutants (Homo sapiens, UniProt P36888); settings: FLT3-autoinhibited (Entrez FLT3), 100 nM; read-out: Percent Control
[14] = biological target: 468 kinases including some pathogenic mutants (Homo sapiens, UniProt Q99558); settings: NIK (Entrez MAP3K14), 1000 nM; read-out: Percent Control
[15] = biological target: 468 kinases including some pathogenic mutants (Homo sapiens, UniProt Q9HBY8); settings: SGK2 (Entrez SGK2), 100 nM; read-out: Percent Control
[16] = biological target: 468 kinases including some pathogenic mutants (Homo sapiens, UniProt P0C264); settings: SgK110 (Entrez SgK110), 1000 nM; read-out: Percent Control
[17] = biological target: 468 kinases including some pathogenic mutants (Homo sapiens, UniProt O60331); settings: PIP5K1C (Entrez PIP5K1C), 1000 nM; read-out: Percent Control
[18] = biological target: 468 kinases including some pathogenic mutants (Homo sapiens, UniProt P15735); settings: PHKG2 (Entrez PHKG2), 100 nM; read-out: Percent Control
[19] = biological target: 468 kinases including some pathogenic mutants (Homo sapiens, UniProt Q13163); settings: MEK5 (Entrez MAP2K5), 100 nM; read-out: Percent Control
[20] = biological target: 468 kinases including some pathogenic mutants (Homo sapiens, UniProt P36888, D835V); settings: read-out: Percent Control
[21] = biological target: 468 kinases including some pathogenic mutants (Homo sapiens, UniProt Q16584); settings: MLK3 (Entrez MAP3K11), 100 nM; read-out: Percent Control
[22] = biological target: 468 kinases including some pathogenic mutants (Homo sapiens, UniProt P45984); settings: JNK2 (Entrez MAPK9), 100 nM; read-out: Percent Control
[23] = biological target: 468 kinases including some pathogenic mutants (Homo sapiens, UniProt P53355); settings: DAPK1 (Entrez DAPK1), 100 nM; read-out: Percent Control
[24] = biological target: 468 kinases including some pathogenic mutants (Homo sapiens, UniProt Q9Y6R4); settings: MAP3K4 (Entrez MAP3K4), 100 nM; read-out: Percent Control
[25] = biological target: 468 kinases including some pathogenic mutants (Homo sapiens, UniProt Q86YV6); settings: MYLK4 (Entrez MYLK4), 1000 nM; read-out: Percent Control
[26] = biological target: 468 kinases including some pathogenic mutants (Homo sapiens, UniProt O95382); settings: ASK2 (Entrez MAP3K6), 100 nM; read-out: Percent Control
[27] = biological target: 468 kinases including some pathogenic mutants (Homo sapiens, UniProt P08581, M1250T); settings: read-out: Percent Control
[28] = biological target: 468 kinases including some pathogenic mutants (Homo sapiens, UniProt P32298); settings: GRK4 (Entrez GRK4), 100 nM; read-out: Percent Control

Chain of 468 kinases including some pathogenic mutants (Homo sapiens, UniProt Q15418) (Q15418 whole entry, change not shown): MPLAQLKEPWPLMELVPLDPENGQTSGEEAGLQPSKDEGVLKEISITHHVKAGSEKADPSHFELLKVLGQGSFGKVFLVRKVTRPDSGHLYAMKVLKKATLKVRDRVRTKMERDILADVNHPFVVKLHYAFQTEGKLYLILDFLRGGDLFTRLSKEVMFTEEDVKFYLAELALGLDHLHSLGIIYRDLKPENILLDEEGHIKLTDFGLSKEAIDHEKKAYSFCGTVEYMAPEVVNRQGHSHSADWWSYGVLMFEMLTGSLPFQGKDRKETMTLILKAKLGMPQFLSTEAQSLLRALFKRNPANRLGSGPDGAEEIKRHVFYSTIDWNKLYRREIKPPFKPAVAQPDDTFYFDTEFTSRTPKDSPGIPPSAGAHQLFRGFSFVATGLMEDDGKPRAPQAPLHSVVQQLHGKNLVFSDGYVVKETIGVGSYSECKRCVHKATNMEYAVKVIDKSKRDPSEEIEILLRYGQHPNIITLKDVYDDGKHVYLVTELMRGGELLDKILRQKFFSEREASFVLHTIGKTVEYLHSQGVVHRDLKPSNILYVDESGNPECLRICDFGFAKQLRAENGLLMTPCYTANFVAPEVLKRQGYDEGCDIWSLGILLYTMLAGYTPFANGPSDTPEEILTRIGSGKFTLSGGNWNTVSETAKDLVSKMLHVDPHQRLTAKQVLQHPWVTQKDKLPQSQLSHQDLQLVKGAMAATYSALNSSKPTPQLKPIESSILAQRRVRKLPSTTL
Chain of 468 kinases including some pathogenic mutants (Homo sapiens, UniProt Q9BRS2) (Q9BRS2 whole entry, change not shown): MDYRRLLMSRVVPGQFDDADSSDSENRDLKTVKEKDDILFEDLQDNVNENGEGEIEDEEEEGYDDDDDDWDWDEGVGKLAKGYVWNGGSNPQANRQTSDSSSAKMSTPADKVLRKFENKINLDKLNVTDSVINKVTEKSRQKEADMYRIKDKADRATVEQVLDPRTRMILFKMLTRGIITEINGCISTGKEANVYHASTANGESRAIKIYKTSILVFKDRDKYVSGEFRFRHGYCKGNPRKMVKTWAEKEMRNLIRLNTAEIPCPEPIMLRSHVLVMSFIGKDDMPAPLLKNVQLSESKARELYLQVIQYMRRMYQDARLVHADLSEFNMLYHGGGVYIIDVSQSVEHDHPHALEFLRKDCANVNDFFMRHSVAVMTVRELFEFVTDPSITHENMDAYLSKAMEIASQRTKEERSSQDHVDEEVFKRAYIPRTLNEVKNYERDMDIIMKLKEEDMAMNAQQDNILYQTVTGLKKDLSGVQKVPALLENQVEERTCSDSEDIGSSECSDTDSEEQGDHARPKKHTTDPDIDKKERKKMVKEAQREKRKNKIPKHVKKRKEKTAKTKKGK
Chain of 468 kinases including some pathogenic mutants (Homo sapiens, UniProt P45984) (P45984 whole entry, change not shown): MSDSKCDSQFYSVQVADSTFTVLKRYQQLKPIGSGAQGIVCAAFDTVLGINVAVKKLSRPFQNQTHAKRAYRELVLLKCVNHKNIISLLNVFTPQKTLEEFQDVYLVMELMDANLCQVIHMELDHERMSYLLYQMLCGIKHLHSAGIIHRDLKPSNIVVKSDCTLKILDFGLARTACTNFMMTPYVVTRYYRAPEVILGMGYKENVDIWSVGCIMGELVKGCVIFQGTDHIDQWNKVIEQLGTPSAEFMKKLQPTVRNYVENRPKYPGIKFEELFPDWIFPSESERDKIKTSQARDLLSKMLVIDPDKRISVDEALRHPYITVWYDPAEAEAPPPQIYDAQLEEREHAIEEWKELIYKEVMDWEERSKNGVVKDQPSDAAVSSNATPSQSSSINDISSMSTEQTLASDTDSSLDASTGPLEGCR
Chain of 468 kinases including some pathogenic mutants (Homo sapiens, UniProt Q13163) (Q13163 whole entry, stated change not applied): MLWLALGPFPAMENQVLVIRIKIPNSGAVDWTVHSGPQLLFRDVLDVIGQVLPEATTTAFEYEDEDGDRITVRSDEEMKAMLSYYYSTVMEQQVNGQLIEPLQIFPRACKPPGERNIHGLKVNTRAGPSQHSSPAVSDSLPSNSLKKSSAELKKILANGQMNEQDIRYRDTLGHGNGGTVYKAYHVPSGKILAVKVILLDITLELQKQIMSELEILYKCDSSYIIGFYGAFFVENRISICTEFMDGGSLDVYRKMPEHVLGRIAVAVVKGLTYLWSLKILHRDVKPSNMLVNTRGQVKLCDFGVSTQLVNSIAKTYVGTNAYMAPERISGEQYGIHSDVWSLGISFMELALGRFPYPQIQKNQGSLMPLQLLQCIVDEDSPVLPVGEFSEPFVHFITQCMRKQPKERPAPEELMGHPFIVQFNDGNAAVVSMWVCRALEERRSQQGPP
Chain of 468 kinases including some pathogenic mutants (Homo sapiens, UniProt P53355) (P53355 whole entry, change not shown): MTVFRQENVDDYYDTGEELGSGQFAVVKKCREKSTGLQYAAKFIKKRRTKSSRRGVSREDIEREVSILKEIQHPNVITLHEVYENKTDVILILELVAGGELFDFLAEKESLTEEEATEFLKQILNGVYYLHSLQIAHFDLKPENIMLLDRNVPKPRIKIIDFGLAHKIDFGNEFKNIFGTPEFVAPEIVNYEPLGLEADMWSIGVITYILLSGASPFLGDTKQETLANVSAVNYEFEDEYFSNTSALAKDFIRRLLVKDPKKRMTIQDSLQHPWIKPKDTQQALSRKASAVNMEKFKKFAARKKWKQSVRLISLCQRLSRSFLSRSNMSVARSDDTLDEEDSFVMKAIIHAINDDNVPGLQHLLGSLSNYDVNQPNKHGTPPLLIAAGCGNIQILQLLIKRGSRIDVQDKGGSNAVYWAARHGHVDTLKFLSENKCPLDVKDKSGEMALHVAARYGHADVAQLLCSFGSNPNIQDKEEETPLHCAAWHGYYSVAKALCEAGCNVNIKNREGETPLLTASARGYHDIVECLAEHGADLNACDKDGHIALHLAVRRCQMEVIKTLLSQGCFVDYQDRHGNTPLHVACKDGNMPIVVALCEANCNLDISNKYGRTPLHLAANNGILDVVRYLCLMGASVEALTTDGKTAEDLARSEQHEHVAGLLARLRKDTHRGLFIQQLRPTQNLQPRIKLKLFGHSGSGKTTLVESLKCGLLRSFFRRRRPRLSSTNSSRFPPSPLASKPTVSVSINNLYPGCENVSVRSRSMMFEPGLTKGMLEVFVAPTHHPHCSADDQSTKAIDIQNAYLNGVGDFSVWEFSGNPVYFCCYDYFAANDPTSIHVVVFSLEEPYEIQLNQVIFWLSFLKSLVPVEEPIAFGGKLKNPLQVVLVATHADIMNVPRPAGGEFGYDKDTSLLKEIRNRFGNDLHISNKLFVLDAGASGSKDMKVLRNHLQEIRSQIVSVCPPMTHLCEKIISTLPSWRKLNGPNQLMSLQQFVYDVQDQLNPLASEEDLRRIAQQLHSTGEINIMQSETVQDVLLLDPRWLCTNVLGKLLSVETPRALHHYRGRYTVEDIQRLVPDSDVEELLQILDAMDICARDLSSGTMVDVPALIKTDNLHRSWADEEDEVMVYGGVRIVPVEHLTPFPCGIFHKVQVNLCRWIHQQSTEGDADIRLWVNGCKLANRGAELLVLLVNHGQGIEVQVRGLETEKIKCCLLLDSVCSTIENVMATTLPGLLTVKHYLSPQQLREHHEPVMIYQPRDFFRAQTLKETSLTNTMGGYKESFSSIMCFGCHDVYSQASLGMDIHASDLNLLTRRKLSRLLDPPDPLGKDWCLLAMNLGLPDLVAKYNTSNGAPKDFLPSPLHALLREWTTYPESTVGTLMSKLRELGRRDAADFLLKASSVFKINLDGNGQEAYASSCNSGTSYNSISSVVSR
Chain of 468 kinases including some pathogenic mutants (Homo sapiens, UniProt Q13882) (Q13882 whole entry, change not shown): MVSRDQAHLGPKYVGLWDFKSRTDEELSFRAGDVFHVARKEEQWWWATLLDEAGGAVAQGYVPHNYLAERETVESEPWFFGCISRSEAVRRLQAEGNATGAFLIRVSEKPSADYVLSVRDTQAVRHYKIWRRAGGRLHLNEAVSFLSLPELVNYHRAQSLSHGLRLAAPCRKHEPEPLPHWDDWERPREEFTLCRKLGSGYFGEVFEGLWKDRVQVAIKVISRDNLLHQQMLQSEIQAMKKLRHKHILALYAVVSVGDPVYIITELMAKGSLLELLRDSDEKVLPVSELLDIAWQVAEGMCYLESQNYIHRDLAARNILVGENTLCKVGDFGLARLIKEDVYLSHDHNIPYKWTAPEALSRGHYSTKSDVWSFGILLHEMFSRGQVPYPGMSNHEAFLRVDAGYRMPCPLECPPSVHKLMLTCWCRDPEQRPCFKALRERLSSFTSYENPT
Chain of 468 kinases including some pathogenic mutants (Homo sapiens, UniProt P0C264) (P0C264 whole entry, change not shown): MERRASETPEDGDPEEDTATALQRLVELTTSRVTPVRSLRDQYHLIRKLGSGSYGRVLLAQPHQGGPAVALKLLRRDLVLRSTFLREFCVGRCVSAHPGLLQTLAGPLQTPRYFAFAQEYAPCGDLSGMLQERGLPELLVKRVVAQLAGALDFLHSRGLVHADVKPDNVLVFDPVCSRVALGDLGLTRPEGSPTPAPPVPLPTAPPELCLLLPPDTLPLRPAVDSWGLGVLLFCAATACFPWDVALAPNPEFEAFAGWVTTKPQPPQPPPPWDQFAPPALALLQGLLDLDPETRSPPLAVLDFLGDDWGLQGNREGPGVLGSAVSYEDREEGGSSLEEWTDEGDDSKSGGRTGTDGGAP
Chain of 468 kinases including some pathogenic mutants (Homo sapiens, UniProt P15735) (P15735 whole entry, change not shown): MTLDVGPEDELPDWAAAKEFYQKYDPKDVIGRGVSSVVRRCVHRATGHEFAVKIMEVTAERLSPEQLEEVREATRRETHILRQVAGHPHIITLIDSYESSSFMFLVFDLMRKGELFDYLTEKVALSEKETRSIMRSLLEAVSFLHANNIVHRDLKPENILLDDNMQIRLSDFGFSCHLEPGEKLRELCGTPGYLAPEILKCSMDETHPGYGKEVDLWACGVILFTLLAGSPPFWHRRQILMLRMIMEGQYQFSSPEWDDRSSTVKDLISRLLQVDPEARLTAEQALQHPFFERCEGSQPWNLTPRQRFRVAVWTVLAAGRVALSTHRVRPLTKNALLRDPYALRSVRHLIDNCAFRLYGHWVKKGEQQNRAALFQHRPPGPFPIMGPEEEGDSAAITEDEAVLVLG

With CN1C(=O)[C@@H](N2CCc3c(nn(Cc4ccccc4)c3C(N)=O)C2=O)COc2cc(Cl)ccc21 [Compound 10, (S)-2-benzyl-6-(8-chloro-5-methyl-4-oxo-2,3,4,5-tetrahydrobenzo[b][1,4]oxazepin-3-yl)-7-oxo-4,5,6,7-tetrahydro-2H-pyrazolo[3,4-c]pyridine-3-carboxamide] the remaining activity at 1 µM ([1]; RSK1(Kin.Dom.1-N-terminal) (Entrez RPS6KA1)) was 100%, the remaining activity at 1 µM ([1]; RSK1(Kin.Dom.2-C-terminal) (Entrez RPS6KA1)) was 100% and the remaining activity at 1 µM [2] was 100%. It also gave a remaining activity at 0.1 µM [3] of 75%, a remaining activity at 0.1 µM [4] of 81% and a remaining activity at 1 µM [5] of 100%. The remaining activity at 0.1 µM [6] was 99%, the remaining activity at 1 µM [7] was 100% and the remaining activity at 0.1 µM [8] was 78%. The remaining activity at 0.1 µM [9] was 63%, the remaining activity at 0.1 µM [10] was 67% and the remaining activity at 1 µM [11] was 100%. It also gave a remaining activity at 0.1 µM [12] of 88%, a remaining activity at 0.1 µM [13] of 84% and a remaining activity at 1 µM [14] of 100%. For the same compound, the remaining activity at 0.1 µM [15] was 75%, the remaining activity at 1 µM [16] was 100% and the remaining activity at 1 µM [17] was 100%. It also gave a remaining activity at 0.1 µM [18] of 62%, a remaining activity at 0.1 µM [19] of 89% and a remaining activity at 0.1 µM [20] of 88%. The remaining activity at 0.1 µM [21] was 100%, the remaining activity at 0.1 µM [22] was 80% and the remaining activity at 0.1 µM [23] was 93%. The remaining activity at 0.1 µM [24] was 79%, the remaining activity at 1 µM [25] was 100% and the remaining activity at 0.1 µM [26] was 76%. The remaining activity at 0.1 µM [27] was 80% and the remaining activity at 0.1 µM [28] was 82%.
